The assay has as its target T1, human Bradykinin B1 receptor (Homo sapiens, UniProt P46663).
T1 construct: host or cells: CHO-K1
T1 sequence (P46663 1-353): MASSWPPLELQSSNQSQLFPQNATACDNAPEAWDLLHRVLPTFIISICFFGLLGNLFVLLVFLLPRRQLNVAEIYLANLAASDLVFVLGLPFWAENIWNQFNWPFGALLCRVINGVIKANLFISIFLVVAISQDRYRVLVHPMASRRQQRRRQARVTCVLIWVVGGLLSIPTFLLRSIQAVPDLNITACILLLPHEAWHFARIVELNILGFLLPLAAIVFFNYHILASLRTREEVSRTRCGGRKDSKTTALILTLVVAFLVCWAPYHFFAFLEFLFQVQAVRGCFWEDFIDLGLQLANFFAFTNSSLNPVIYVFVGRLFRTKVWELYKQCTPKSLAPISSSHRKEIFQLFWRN
The assay can be described thus: Calcium flux assay (FLIPR), CHO-K1 cells expressing human Bradykinin B1 receptor, absence of 0.1% BSA (hB1 free IC50). The class given is cell-based. The conditions noted are these: absence of 0.1% BSA in assay buffer. On the procedure: The potency to inhibit the Bradykinin B1 receptor was determined for the Compound Examples of this invention in a cell-based fluorescent calcium-mobilisation assay. The assay measures the ability of Compound Examples to inhibit Bradykinin B1 receptor agonist-induced increase of intracellular free Ca^2+ in the cell line expressing Bradykinin B1 receptor. Specifically, calcium indicator-loaded cells are pre-incubated in the absence or presence of different concentrations of Compound Examples followed by the stimulation with a selective Bradykinin B1 receptor agonist peptide. The change of the intracellular Ca^2+ concentration is monitored with a fluorescent plate reader FLIPR^TETRA® (Molecular Devices).
Calcium Flux Assays (FLIPR) with Cells Expressing Human Bradykinin B1 Receptor (hB1)
CHO-K1 cell line expressing human Bradykinin B1 receptor is purchased from Euroscreen (Gosselies, Belgium, with reference name hB1-D1). The cells are grown in Nutrient Mixture Ham's F12 (Sigma) containing 10% Foetal bovine serum (Sigma) and 400 μg/mL G418 (Sigma), 5 μg/mL puromycin (Sigma).
The effect of BSA on the potency of endothelin receptor antagonists have been described in the prior art (Wu-Wong, J. R. et al. (1997), JPET 281: 791-798). The teaching can be applied in analogy to testing the potency of Bradykinin B1 receptor antagonist in the FLIPR assays.
For the calcium flux assay, 80% confluent cells are detached from the culture vessels with Versene (Gibco), and seeded into 384-well plates (Cell binding Surface; Corning, NY; #3683) at a density of 15,000 cells per well. Cells are seeded in a volume of 50 μL in medium without antibiotics and incubated overnight in a humidified atmosphere with 5% CO2 at 37° C. […] The calcium indicator loaded cells are incubated at 37° C. for 2 hrs. Extracellular dye is then removed and each well is filled with 45 μL of assay buffer. Cell plates are kept in dark until used. Compound examples are assayed at 8 concentrations in triplicate. Serial 10-fold dilutions in 100% DMSO are made at a 100-times higher concentration than the final concentration, and then diluted 1:10 in assay buffer. 5 μL of each diluted compound is added to the well of cell plates (yielding final concentration with 1% DMSO), and incubated for 30 min at 28° C. before the addition of Bradykinin B1 receptor agonist on the FLIPR instrument.
The addition of agonist 20 μl per well to the assay plate is carried out on the FLIPR instrument while continuously monitoring Ca2+-dependent fluorescence at 538 nm. A peptide antagonist Lys-(Des-Arg-Leu)-Bradykinin (Bachem, Brackley) at 20 µM is used to determine the full inhibition as control.
Peak fluorescence is used to determine the response to agonist obtained at each concentration of Compound Examples by the following equation: % Response=100*(RFU(compound)−RFU(control))/(RFU(DMSO)−RFU(control))
RFU means relative fluorescence units.
Control means full inhibition by the peptide antagonist Lys-(Des-Arg-Leu)-Bradykinin at 20 µM.
The response values are plotted against the logarithm of the compound concentrations. The Compound Examples are tested in triplicates per plate and mean values are plotted in Excel XLfit to determine IC50 values, percentage of maximal inhibition and the Hill slopes.

Experimental findings from US12023319B2, “Carboxylic acid aromatic amides” (priority 2016, dated 2024) are described below.

As for `CC1CCC(C2(C(=O)Nc3cc(F)c(-c4cnn(C5CCC5)c4)c(C(=O)O)c3)CC2)CC1` (mixture of isomers) [Example 144, 2-(1-Cyclobutyl-1H-pyrazol-4-yl)-3-fluoro-5-({[1-(4-methylcyclohexyl)cyclopropyl]carbonyl}amino)benzoic acid], the half-inhibitory concentration (IC50) was determined as 0.32 µM.

With `O=C(O)c1cc(NC(=O)C2(c3cc(F)c(F)cc3F)CC2)ccc1-c1ccc(C(F)(F)F)nc1` [Example 8, 2-[6-(Trifluoromethyl)pyridin-3-yl]-5-({[1-(2,4,5-trifluorophenyl)cyclopropyl]carbonyl}amino)benzoic acid], the IC50 worked out at 0.69 µM.

For the compound `O=C(O)c1cc(NC(=O)C2(c3ccc(C(F)(F)F)cc3F)CC2)ccc1-n1ccc(CC(F)(F)F)n1` [Example 15, 5-[({1-[2-Fluoro-4-(trifluoromethyl)phenyl]cyclopropyl}carbonyl)amino]-2-[3-(2,2,2-trifluoroethyl)-1H-pyrazol-1-yl]benzoic acid], the IC50 was determined as 3.6 µM. To `O=C(O)c1cc(NC(=O)C2(c3ccc(C(F)(F)F)cc3F)CC2)ccc1-n1cc(C(F)(F)F)cn1` [Example 16, 5-[({1-[2-Fluoro-4-(trifluoromethyl)phenyl]cyclopropyl}carbonyl)amino]-2-[4-(trifluoromethyl)-1H-pyrazol-1-yl]benzoic acid] belongs 2.8 µM; to `CCC(F)(F)c1ccc(-c2ccc(NC(=O)C3(c4ccc(C(F)(F)F)cc4)CC3)cc2C(=O)O)cn1` [Example 21, 2-[6-(1,1-Difluoropropyl)pyridin-3-yl]-5-[({1-[4-(trifluoromethyl)phenyl]cyclopropyl}carbonyl)amino]benzoic acid], 0.71 µM.

As for `CCC(F)(F)c1ccc(-c2ccc(NC(=O)C3(c4ccc(OC(F)(F)F)cc4)CC3)cc2C(=O)O)cn1` [Example 22, 2-[6-(1,1-Difluoropropyl)pyridin-3-yl]-5-[({1-[4-(trifluoromethoxy)phenyl]cyclopropyl}carbonyl)amino]benzoic acid], the IC50 turned out to be 0.29 µM. The result for `CCC(F)(F)c1ccc(-c2ccc(NC(=O)C3(c4ccc(F)cc4F)CC3)cc2C(=O)O)cn1` [Example 23, 5-({[1-(2,4-Difluorophenyl)cyclopropyl]carbonyl}amino)-2-[6-(1,1-difluoropropyl)pyridin-3-yl]benzoic acid] reads 2.4 µM; that for `CCC(F)(F)c1ccc(-c2ccc(NC(=O)C3(c4ccc(Cl)cc4F)CC3)cc2C(=O)O)cn1` [Example 24, 5-({[1-(4-Chloro-2-fluorophenyl)cyclopropyl]carbonyl}amino)-2-[6-(1,1-difluoropropyl)pyridin-3-yl]benzoic acid], 0.29 µM. To `Cc1ccc(C2(C(=O)Nc3ccc(-c4ccc(C(C)(F)F)nc4)c(C(=O)O)c3)CC2)c(F)c1` [Example 30, 2-[6-(1,1-Difluoroethyl)pyridin-3-yl]-5-({[1-(2-fluoro-4-methylphenyl)cyclopropyl]carbonyl}amino)benzoic acid] belongs 0.41 µM; to `CC(F)(F)c1ccc(-c2ccc(NC(=O)C3(c4ccc(C(F)(F)F)cc4F)CC3)cc2C(=O)O)cn1` [Example 31, 2-[6-(1,1-Difluoroethyl)pyridin-3-yl]-5-[({1-[2-fluoro-4-(trifluoromethyl)phenyl]cyclopropyl}carbonyl)amino]benzoic acid], 0.13 µM; to `CC(F)(F)c1ccc(-c2ccc(NC(=O)C3(c4ccc(OC(F)(F)F)cc4F)CC3)cc2C(=O)O)cn1` [Example 32, 2-[6-(1,1-Difluoroethyl)pyridin-3-yl]-5-[({1-[2-fluoro-4-(trifluoromethoxy)phenyl]cyclopropyl}carbonyl)amino]benzoic acid], 0.19 µM.

On to `CC(O)c1ccc(-c2ccc(NC(=O)C3(c4ccc(C(F)(F)F)cc4F)CC3)cc2C(=O)O)cn1` (stereo not shown) [Example 33, 5-[({1-[2-Fluoro-4-(trifluoromethyl)phenyl]cyclopropyl}carbonyl)amino]-2-[6-(1-hydroxyethyl)pyridin-3-yl]benzoic acid], for which the IC50 is 0.46 µM. The result for `O=C(O)c1cc(NC(=O)C2(c3ccc(C(F)(F)F)cc3F)CC2)ccc1-c1cnn(CC(F)(F)F)c1` [Example 34, 5-[({1-[2-Fluoro-4-(trifluoromethyl)phenyl]cyclopropyl}carbonyl)amino]-2-[1-(2,2,2-trifluoroethyl)-1H-pyrazol-4-yl]benzoic acid] reads 0.031 µM. To `O=C(O)c1cc(NC(=O)C2(c3ccc(Cl)cc3)CC2)cc(F)c1-c1cnn(C2CCC2)c1` [Example 35, 5-({[1-(4-Chlorophenyl)cyclopropyl]carbonyl}amino)-2-(1-cyclobutyl-1H-pyrazol-4-yl)-3-fluorobenzoic acid] belongs 0.026 µM; to `O=C(O)c1cc(NC(=O)C2(c3ccc(F)c(F)c3)CC2)cc(F)c1-c1cnn(C2CCC2)c1` [Example 38, 2-(1-Cyclobutyl-1H-pyrazol-4-yl)-5-({[1-(3,4-difluorophenyl)cyclopropyl]carbonyl}amino)-3-fluorobenzoic acid], 0.022 µM.

`O=C(O)c1cc(NC(=O)C2(c3ccc(C(F)(F)F)cc3F)CC2)ccc1-c1cn(C2CCC2)nc1F` [Example 45, 2-(1-Cyclobutyl-3-fluoro-1H-pyrazol-4-yl)-5-[({1-[2-fluoro-4-(trifluoromethyl)phenyl]cyclopropyl}carbonyl)amino]benzoic acid]: the half-inhibitory concentration (IC50) stood at 0.055 µM. To `O=C(O)c1cc(NC(=O)C2(c3ccc(C(F)(F)F)cc3F)CC2)ccc1-c1cc2cccnc2s1` [Example 46, 5-[({1-[2-Fluoro-4-(trifluoromethyl)phenyl]cyclopropyl}carbonyl)amino]-2-(thieno[2,3-b]pyridin-2-yl)benzoic acid] belongs 0.058 µM; to `O=C(O)c1cc(NC(=O)C2(c3ccc(C(F)(F)F)cc3F)CC2)ccc1-c1ccc(Cl)s1` [Example 47, 2-(5-Chloro-2-thienyl)-5-[({1-[2-fluoro-4-(trifluoromethyl)phenyl]cyclopropyl}carbonyl)amino]benzoic acid], 0.23 µM; to `O=C(O)c1cc(NC(=O)C2(c3ccc(C(F)(F)F)cc3F)CC2)ccc1-c1ccc(C(F)(F)F)s1` [Example 48, 5-[({1-[2-Fluoro-4-(trifluoromethyl)phenyl]cyclopropyl}carbonyl)amino]-2-[5-(trifluoromethyl)-2-thienyl]benzoic acid], 0.22 µM. To `O=C(O)c1cc(NC(=O)C2(c3ccc(Cl)c(F)c3)CC2)ccc1-c1cnn(C2CCC2)c1` [Example 49, 5-({[1-(4-Chloro-3-fluorophenyl)cyclopropyl]carbonyl}amino)-2-(1-cyclobutyl-1H-pyrazol-4-yl)benzoic acid] belongs 0.047 µM. To `O=C(O)c1cc(NC(=O)C2(c3ccc(C(F)(F)F)cc3)CC2)ccc1-c1cnn(C2CCC2)c1` [Example 50, 2-(1-Cyclobutyl-1H-pyrazol-4-yl)-5-[({1-[4-(trifluoromethyl)phenyl]cyclopropyl}carbonyl)amino]benzoic acid] belongs 0.062 µM; to `O=C(O)c1cc(NC(=O)C2(c3cccc(Cl)c3F)CC2)ccc1-c1cnn(C2CCC2)c1` [Example 52, 5-({[1-(3-Chloro-2-fluorophenyl)cyclopropyl]carbonyl}amino)-2-(1-cyclobutyl-1H-pyrazol-4-yl)benzoic acid], 0.74 µM.
